SMILES strings stand for the structures.

For data set [1], the system named is Madracis mirabilis. Put plainly: Toxicity against Madracis mirabilis assessed as retracted polyps at 10 ug/ml after 24 hrs. As to conditions: in vivo; call rule not given here.
The subject of data set [2] is Madracis mirabilis. Put plainly: Toxicity against Madracis mirabilis assessed as retraction recovery at 10 ug/ml after 48 hrs. As to conditions: in vivo.
Data set [3] has as its system Madracis mirabilis. Put plainly: Toxicity against Madracis mirabilis polyps assessed as mortality at 7.75 ug/ml after 2 hrs. As to conditions: in vivo.
In data set [4] the test system is HT-29. Put plainly: Cytotoxicity against human HT-29 cells. The class given is functional, cell-based.
The subject of data set [5] is A549. Put plainly: Cytotoxicity against human A549 cells. The class given is functional, cell-based.
Data set [6] is described as follows: Toxicity against Madracis mirabilis polyps assessed as mortality after 2 hrs. Type of data set: organism-based. As to conditions: in vivo; read-out: LD50.
The subject of data set [7] is Madracis mirabilis. Put plainly: Toxicity against Madracis mirabilis polyps assessed as mortality at 10 ug/ml after 2 hrs. As to conditions: in vivo.
Data set [8] deals with P388. Put plainly: Cytotoxicity against mouse P388 cells. The class given is functional, cell-based.

For the compound `C=C(C)[C@H]1CC[C@@]2(C)CCC[C@@](C)(N)[C@@H]2C1` (relative stereo), the Activity entry in data set [1] is “Active”; in data set [2], 40%.

Turning to `C=C(C)[C@H]1CC[C@@]2(C)CCC[C@@](C)(N)[C@@H]2C1.Cl` (relative stereo), the Activity entry in data set [3] is “Non-toxic”; in data set [7] it was “Toxic”. The IC50 in data set [4], in data set [5] and in data set [8] was 2 µg/mL throughout. Also, the LC50 at 2 h in data set [6] came to 9.4 µg/mL.

What is called IC50 is the point on the concentration scale where inhibition reaches its midpoint. Read a low IC50 as inhibition by little substance.

Source of the values: ChEMBL document CHEMBL1150588, “New nitrogenous eudesmane-type compounds isolated from the Caribbean sponge Axinyssa ambrosia” (J Nat Prod, 2002).
